Series [1] addresses NaV1.5 (Homo sapiens (Human), UniProt Q14524). Description: Sodium Influx Assay (Flux), NaV1.5.
The target in series [2] is NaV1.1 (Homo sapiens (Human), UniProt P35498). Description: Sodium Influx Assay (Flux), NaV1.1.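 Also: channels co-expressed with human β1 subunit and held open by modulators, cells exposed to compounds for one hour at room temperature, IC50 from percent inhibition of influx.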 The format is cell-based. The settings on record: Trex HEK293 cells, ANG2 dye, inactivated state.
For series [3], the target named is NaV1.6 (Homo sapiens (Human), UniProt Q9UQD0). Briefly: Sodium Influx Assay (Flux), NaV1.6.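 Also: Tetracycline-induced cells, compounds applied for one hour at room temperature with modulators holding channels open, IC50 from percent inhibition of sodium influx.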 The format is cell-based. The settings on record: Trex HEK293 cells, ANG2 dye, inactivated state.
Setting [4] is: read-out: Flux NaV1.5 IC50, Trex HEK293 cells, ANG2 dye, inactivated state.

From patent US11174268B2, “Benzenesulfonamide compouds and their use as therapeutic agents” (Xenon Pharmaceuticals Inc., priority 2016, dated 2021) come the findings set out here.

Like-named read-outs stand apart in the source and are kept apart here.

Sequence of NaV1.5 (Q14524 other isoform, or with tags, fused parts or gaps): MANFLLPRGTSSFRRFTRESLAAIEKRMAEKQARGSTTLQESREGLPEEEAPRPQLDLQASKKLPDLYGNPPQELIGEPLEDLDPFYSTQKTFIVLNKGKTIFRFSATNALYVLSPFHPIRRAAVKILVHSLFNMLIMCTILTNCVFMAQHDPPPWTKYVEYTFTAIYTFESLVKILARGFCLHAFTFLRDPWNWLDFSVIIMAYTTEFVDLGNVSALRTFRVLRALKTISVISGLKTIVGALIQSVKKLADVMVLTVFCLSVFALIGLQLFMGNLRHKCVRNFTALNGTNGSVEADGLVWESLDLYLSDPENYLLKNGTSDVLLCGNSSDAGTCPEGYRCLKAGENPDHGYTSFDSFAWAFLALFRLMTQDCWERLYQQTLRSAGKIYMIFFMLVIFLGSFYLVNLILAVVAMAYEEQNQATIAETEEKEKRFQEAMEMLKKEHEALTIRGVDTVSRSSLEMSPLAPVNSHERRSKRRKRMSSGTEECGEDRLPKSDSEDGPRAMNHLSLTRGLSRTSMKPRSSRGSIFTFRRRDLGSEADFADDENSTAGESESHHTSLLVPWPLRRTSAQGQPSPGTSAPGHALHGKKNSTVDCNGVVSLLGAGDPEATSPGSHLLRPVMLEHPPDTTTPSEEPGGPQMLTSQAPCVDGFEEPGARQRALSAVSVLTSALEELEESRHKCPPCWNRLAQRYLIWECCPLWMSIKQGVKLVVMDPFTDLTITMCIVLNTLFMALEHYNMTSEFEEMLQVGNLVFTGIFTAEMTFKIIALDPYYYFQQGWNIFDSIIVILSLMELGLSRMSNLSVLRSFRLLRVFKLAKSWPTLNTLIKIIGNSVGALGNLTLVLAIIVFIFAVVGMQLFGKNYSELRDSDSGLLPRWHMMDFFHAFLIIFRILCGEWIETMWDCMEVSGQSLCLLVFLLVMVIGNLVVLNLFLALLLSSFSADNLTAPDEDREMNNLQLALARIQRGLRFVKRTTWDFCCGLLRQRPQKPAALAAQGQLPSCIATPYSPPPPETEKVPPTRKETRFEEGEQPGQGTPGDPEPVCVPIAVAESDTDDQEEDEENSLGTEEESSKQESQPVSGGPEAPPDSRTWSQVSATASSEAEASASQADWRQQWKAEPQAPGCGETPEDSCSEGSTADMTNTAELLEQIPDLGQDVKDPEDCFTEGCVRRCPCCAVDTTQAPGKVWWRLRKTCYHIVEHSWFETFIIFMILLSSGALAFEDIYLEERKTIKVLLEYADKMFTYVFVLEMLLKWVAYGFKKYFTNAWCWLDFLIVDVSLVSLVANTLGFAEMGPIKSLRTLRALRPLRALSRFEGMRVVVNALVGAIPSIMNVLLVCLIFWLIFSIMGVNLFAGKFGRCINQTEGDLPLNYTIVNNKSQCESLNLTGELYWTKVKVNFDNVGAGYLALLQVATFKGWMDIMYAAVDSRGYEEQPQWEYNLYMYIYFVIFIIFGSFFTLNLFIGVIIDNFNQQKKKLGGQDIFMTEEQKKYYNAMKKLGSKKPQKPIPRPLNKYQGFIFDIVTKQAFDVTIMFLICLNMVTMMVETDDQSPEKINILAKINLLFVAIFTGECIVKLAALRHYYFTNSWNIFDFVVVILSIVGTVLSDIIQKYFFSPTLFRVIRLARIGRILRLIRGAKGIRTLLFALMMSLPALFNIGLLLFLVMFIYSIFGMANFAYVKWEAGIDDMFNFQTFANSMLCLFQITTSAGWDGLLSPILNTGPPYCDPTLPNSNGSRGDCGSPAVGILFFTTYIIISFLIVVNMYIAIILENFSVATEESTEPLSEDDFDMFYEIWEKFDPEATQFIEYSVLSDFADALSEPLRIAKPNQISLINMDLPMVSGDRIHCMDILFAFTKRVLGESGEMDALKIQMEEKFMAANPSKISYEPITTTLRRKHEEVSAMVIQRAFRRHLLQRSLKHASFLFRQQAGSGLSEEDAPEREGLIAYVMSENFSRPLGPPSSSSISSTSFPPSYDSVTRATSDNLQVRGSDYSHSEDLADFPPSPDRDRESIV

`CN(Cc1cccc(F)c1CNc1ccc(S(=O)(=O)Nc2cscn2)c(F)c1F)C(C)(C)C` [Example 203, 4-((2-((tert-butyl(methyl)amino)methyl)-6-fluorobenzyl)amino)-2,3-difluoro-N-(thiazol-4-yl)benzenesulfonamide 2,2,2-trifluoroacetate]: the IC50 amounted to 28.3 µM in series [1] (setting [4]), 26.6 µM in series [2] and 0.225 µM in series [3].

For the compound `C[C@H](Nc1cc(F)c(S(=O)(=O)Nc2ccncn2)c(F)c1)c1cc(F)ccc1F` [Example 208, (S)-4-((1-(2,5-difluorophenyl)ethyl)amino)-2,6-difluoro-N-(pyrimidin-4-yl)benzenesulfonamide 2,2,2-trifluoroacetate], the IC50 was 30 µM in series [1] (setting [4]), 9.89 µM in series [2] and 0.593 µM in series [3].

On to `CCc1cccc(CN2CCC2)c1CNc1cc(F)c(S(=O)(=O)Nc2cscn2)c(F)c1` [Example 210, 4-((2-(azetidin-1-ylmethyl)-6-ethylbenzyl)amino)-2,6-difluoro-N-(thiazol-4-yl)benzenesulfonamide 2,2,2-trifluoroacetate], for which the IC50 in series [1] (setting [4]) stood at 26.8 µM; in series [2], 3.75 µM; in series [3], 0.416 µM.

For `O=S(=O)(Nc1cscn1)c1c(F)cc(NCc2c(CN3CCC3)cccc2C2CC2)cc1F` [Example 211, 4-((2-(azetidin-1-ylmethyl)-6-cyclopropylbenzyl)amino)-2,6-difluoro-N-(thiazol-4-yl)benzenesulfonamide 2,2,2-trifluoroacetate], the IC50 is 19.2 µM in series [1] (setting [4]), 3.38 µM in series [2] and 1.76 µM in series [3].

On to `COC(C)(C)C1CN(Cc2ccccc2CNc2cc(F)c(S(=O)(=O)Nc3cscn3)c(F)c2)C1` [Example 214, 2,6-difluoro-4-((2-((3-(2-methoxypropan-2-yl)azetidin-1-yl)methyl)benzyl)amino)-N-(thiazol-4-yl)benzenesulfonamide 2,2,2-trifluoroacetate], for which the IC50 in series [1] (setting [4]) was determined as 16.2 µM; in series [2], 13.4 µM; in series [3], 0.326 µM.

As for `Cc1cc(NS(=O)(=O)c2c(F)cc(NCc3c(F)ccc(F)c3CN3CCC3)cc2F)no1` [Example 216, 4-((2-(azetidin-1-ylmethyl)-3,6-difluorobenzyl)amino)-2,6-difluoro-N-(5-methylisoxazol-3-yl)benzenesulfonamide 2,2,2-trifluoroacetate], the concentration for half-maximal inhibition (IC50) in series [1] (setting [4]) amounted to 30 µM; in series [2] it was 30 µM; in series [3], 3.12 µM.

Turning to `CN(C)Cc1ccccc1C1(Nc2cc(F)c(S(=O)(=O)Nc3cscn3)cc2Cl)CC1` [Example 217, 5-chloro-4-((1-(2-((dimethylamino)methyl)phenyl)cyclopropyl)-amino)-2-fluoro-N-(thiazol-4-yl)benzenesulfonamide 2,2,2-trifluoroacetate], the IC50 in series [1] (setting [4]) was 11.6 µM; in series [2], 15.3 µM; in series [3] it was 0.701 µM.

Take `COCc1cccc(F)c1CNc1cc(F)c(S(=O)(=O)Nc2cscn2)cc1Cl` [Example 218, 5-chloro-2-fluoro-4-((2-fluoro-6-(methoxymethyl)benzyl)amino)-N-(thiazol-4-yl)benzenesulfonamide]: the IC50 in series [1] (setting [4]) stood at 20.9 µM; in series [2], 28.4 µM; in series [3], 3.21 µM.

As to `Cc1cc(S(=O)(=O)Nc2ccon2)c(F)cc1NCc1c(F)cccc1CN1CCC1` [Example 219, 4-((2-(azetidin-1-ylmethyl)-6-fluorobenzyl)amino)-2-fluoro-N-(isoxazol-3-yl)-5-methylbenzenesulfonamide], the IC50 turned out to be 30 µM in series [1] (setting [4]), 30 µM in series [2] and 0.28 µM in series [3].

For the compound `O=S(=O)(Nc1nccs1)c1cc(Cl)c(NC2(c3ccccc3F)CC2)cc1F` [Example 220, 5-chloro-2-fluoro-4-((1-(2-fluorophenyl)cyclopropyl)amino)-N-(thiazol-2-yl)benzenesulfonamide], the results for the IC50 in series [1] (setting [4]), in series [2] and in series [3] were 3.17 µM, 2.12 µM and 0.193 µM, respectively.

`O=S(=O)(Nc1cscn1)c1cc(Cl)c(OC2(c3ccccc3)CC2)cc1F` [Example 221, 5-chloro-2-fluoro-4-(1-phenylcyclopropoxy)-N-(thiazol-4-yl)benzenesulfonamide]: the figures for the concentration for half-maximal inhibition (IC50) in series [1] (setting [4]), in series [2] and in series [3] were 19 µM, 25.4 µM and 4.66 µM, respectively.

In the case of `CC[C@H](Nc1cc(F)c(S(=O)(=O)Nc2cscn2)cc1Cl)c1ccccc1Cl` [Example 222, (S)-5-chloro-4-((1-(2-chlorophenyl)propyl)amino)-2-fluoro-N-(thiazol-4-yl)benzenesulfonamide], the IC50 in series [1] (setting [4]) was found to be 8.35 µM; in series [2], 3.99 µM; in series [3] it was 1.93 µM.

Consider `C[C@H](Nc1cc(F)c(S(=O)(=O)Nc2cscn2)cc1Cl)c1cc(F)cc(F)c1` [Example 223, (S)-5-chloro-4-((1-(3,5-difluorophenyl)ethyl)amino)-2-fluoro-N-(thiazol-4-yl)benzenesulfonamide], for which the IC50 was found to be 12.2 µM in series [1], 3.74 µM in series [2] and 4.23 µM in series [3].

Take `O=S(=O)(Nc1cscn1)c1cc(Cl)c(NC2(c3ccc(F)cc3F)CC2)cc1F` [Example 224, 5-chloro-4-((1-(2,4-difluorophenyl)cyclopropyl)amino)-2-fluoro-N-(thiazol-4-yl)benzenesulfonamide]: the IC50 in series [1] (setting [4]) is 30 µM; in series [2] it was 7.76 µM; in series [3] it was 5.07 µM.

Take `Cc1cccc(Cl)c1CNc1cc(F)c(S(=O)(=O)Nc2cscn2)cc1Cl` [Example 226, 5-chloro-4-((2-chloro-6-methylbenzyl)amino)-2-fluoro-N-(thiazol-4-yl)benzenesulfonamide]: the figures for the IC50 in series [1] (setting [4]), in series [2] and in series [3] were 11.3 µM, 19.9 µM and 8.19 µM, respectively.

For the compound `C[C@H](Nc1cc(F)c(S(=O)(=O)Nc2cscn2)cc1Cl)c1cc(CC(F)F)ccc1F` [Example 227, (S)-5-chloro-4-((1-(5-(2,2-difluoroethyl)-2-fluorophenyl)ethyl)amino)-2-fluoro-N-(thiazol-4-yl)benzenesulfonamide], the values for the IC50 in series [1] (setting [4]), in series [2] and in series [3] were 8.6 µM, 8.78 µM and 1.25 µM, respectively.

On to `COCc1ccc(F)c([C@H](C)Nc2cc(F)c(S(=O)(=O)Nc3cscn3)c(F)c2)c1` [Example 228, (S)-2,6-difluoro-4-((1-(2-fluoro-5-(methoxymethyl)phenyl)ethyl)amino)-N-(thiazol-4-yl)benzenesulfonamide], for which the IC50 came to 27.5 µM in series [1] (setting [4]), 13.2 µM in series [2] and 1.94 µM in series [3].

For `C[C@H](Nc1cc(F)c(S(=O)(=O)Nc2cscn2)cc1Cl)c1cc(C#N)ccc1F` [Example 229, (S)-5-chloro-4-((1-(5-cyano-2-fluorophenyl)ethyl)amino)-2-fluoro-N-(thiazol-4-yl)benzenesulfonamide], the concentration for half-maximal inhibition (IC50) turned out to be 30 µM in series [1] (setting [4]), 30 µM in series [2] and 0.961 µM in series [3].

`O=S(=O)(Nc1cscn1)c1c(F)cc(NC2(c3ccccc3)CC2)cc1F` [Example 231, 2,6-difluoro-4-[(1-phenylcyclopropyl)amino]-N-thiazol-4-yl-benzenesulfonamide]: the IC50 in series [1] (setting [4]) was 30 µM; in series [2], 17.5 µM; in series [3], 4.21 µM.

Regarding `C[C@H](Oc1cc(F)c(S(=O)(=O)Nc2cscn2)c(F)c1)c1ccccc1F` [Example 232, (S)-2,6-difluoro-4-(1-(2-fluorophenyl)ethoxy)-N-(thiazol-4-yl)benzenesulfonamide], the half-maximal inhibitory concentration (IC50) was determined as 11.2 µM in series [1] (setting [4]), 21.2 µM in series [2] and 1.75 µM in series [3].

As for `C[C@H](Nc1cc(F)c(S(=O)(=O)Nc2cscn2)c(F)c1)c1cc(C(F)F)ccc1F` [Example 233, (S)-4-((1-(5-(difluoromethyl)-2-fluorophenyl)ethyl)amino)-2,6-difluoro-N-(thiazol-4-yl)benzenesulfonamide], the IC50 in series [1] (setting [4]) came out at 12.4 µM; in series [2], 3.08 µM; in series [3] it was 0.787 µM.

`C[C@H](Nc1cc(F)c(S(=O)(=O)Nc2cscn2)cc1Cl)c1cc(O)ccc1F` [Example 234, (S)-5-chloro-2-fluoro-4-((1-(2-fluoro-5-hydroxyphenyl)ethyl)amino)-N-(thiazol-4-yl)benzenesulfonamide]: the IC50 came out at 8.67 µM in series [1] (setting [4]), 4.62 µM in series [2] and 0.669 µM in series [3].

Turning to `C[C@H](Nc1cc(F)c(S(=O)(=O)Nc2cscn2)cc1Cl)c1cc(OC2COC2)ccc1F` [Example 235, (S)-5-chloro-2-fluoro-4-((1-(2-fluoro-5-(oxetan-3-yloxy)phenyl)ethyl)amino)-N-(thiazol-4-yl)benzenesulfonamide], the results for the IC50 in series [1] (setting [4]), in series [2] and in series [3] were 30 µM, 22.4 µM and 3.02 µM, respectively.

Take `C[C@H](Nc1cc(F)c(S(=O)(=O)Nc2cscn2)cc1Cl)c1cc(OCC2COC2)ccc1F` [Example 236, (S)-5-chloro-2-fluoro-4-((1-(2-fluoro-5-(oxetan-3-ylmethoxy)phenyl)ethyl)amino)-N-(thiazol-4-yl)benzenesulfonamide]: the IC50 came to 30 µM in series [1] (setting [4]), 30 µM in series [2] and 3.02 µM in series [3].

In the case of `C[C@H](Nc1cc(F)c(S(=O)(=O)Nc2cscn2)cc1Cl)c1cc(OCC2(C)COC2)ccc1F` [Example 237, (S)-5-chloro-2-fluoro-4-((1-(2-fluoro-5-((3-methyloxetan-3-yl)methoxy)phenyl)ethyl)amino)-N-(thiazol-4-yl)benzenesulfonamide], the values for the IC50 in series [1] (setting [4]), in series [2] and in series [3] were 30 µM, 12.5 µM and 3.54 µM, respectively.

Turning to `C[C@H](Nc1ccc(S(=O)(=O)Nc2cscn2)cc1C#N)c1ccccc1F` [Example 239, (S)-3-cyano-4-((1-(2-fluorophenyl)ethyl)amino)-N-(thiazol-4-yl)benzenesulfonamide], the values for the half-inhibitory concentration (IC50) in series [1] (setting [4]), in series [2] and in series [3] were 28.9 µM, 27 µM and 1.65 µM, respectively.

Broadly, the IC50 is the concentration that inhibits the measured activity by half.
